Results published in patent US10165772B2, “Methods and compounds for increasing red blood cell survival” (priority 2008, dated 2019).

Assays:
Assay type in all cases: cell-based
[1] = system: human red blood cell (RBC); assay: Human RBC survival in vitro in RPMI 1640, viable/dead cells by flow cytometry (FSC/SSC); conditions: for protecting effect on RBCs (survival versus vehicle control): 100 μM, RPMI 1640; for RBC survival as compared to RBCs cultured in the presence of buffer only: 7 days at 37° C., 1, 10, 100 μM tested (FIG. 13)
Method: RBCs were incubated in vitro at 37° C., and cells were analyzed by flow cytometry for assessment of the relative proportions of dead and viable cells. Forward scatter (FSC)/side scatter (SSC) dot plots of RBCs incubated in the presence or absence of 5-HT (100 μM) are shown in (A) to (E) for the indicated time points. Two main regions of analysis are set, R1 (left box) and R2 (right box), corresponding to dead and viable RBCs, respectively. The proportion of viable cells remaining at each time-point is indicated next to the R2 region (upper right in the dot plots). (F) Typical concentration-dependent effects of 5-HT (0-100 μM) on RBCs incubated for different periods of time;
RBCs were incubated for various lengths of time in the RPMI 1640 medium at 37° C. (A), at room temperature (21 to 23° C.) (B), or at 4° C. (C). 5-HT (100 μM, black circles) or vehicle control (white circles) was added before incubation at Day 0, and cell viability was assessed by flow cytometry at several times as indicated;
RBCs were incubated for 7 days at 37° C. in the presence or absence of different concentrations of the indicated indole compounds (white bars =1 μM; grey bars=10 μM; black bars:100 μM). As a control, RBCs were incubated in the presence of the appropriate buffer (without the compounds). RBCs survival in the presence of a given compound is expressed as the percentage of survival relative to the control.
Red blood cells isolation. Venous blood was drawn from healthy volunteers, and RBCs were isolated by centrifugation at 800 rpm to remove platelet-rich plasma, and white blood cells. The resulting pellet of RBCs was washed three times in NaCl 0.9% by centrifugation at 3000 rpm. RBCs were incubated at 37° C., 5% CO2 in 24-well microplates at a concentration of 1x10^6 cells/ml in RPMI 1640 medium without phenol red containing HEPES/NaOH (pH 7.4) and penicillin (100 U/ml)/streptomycin ([…]).
(§1) Cell culture. Drugs [serotonin (Catalog No. H9525), melatonin (Catalog No. M5250), pindolol (Catalog No. P0778) and indomethacin (Catalog No. 18280)] were all purchased from Sigma-Aldrich. They were added at the indicated concentrations at the beginning of cell incubation (Day 0). Cells were harvested at specific time-points and analyzed by flow cytometry (FACScan™, Becton Dickinson) according to forward and side scatters (FSC and SSC, respectively). FSC is proportional to cell size, while SSC is proportional to cell complexity, which may reflect hemoglobin content of RBCs. The relative proportions of viable and dead RBCs were calculated by setting appropriate regions on the dot plots. In some experiments, RBCs were sorted according to FSC and SSC. Cell density was checked routinely by inverted light microscopy, and cell morphology was assessed by May Grünwald-Giemsa staining followed by light microscopy.

human RBCs [2] = assay: Survival of human RBCs cultured in AS-3 additive solution, flow cytometry; conditions: 100 μM
Method: AS-3 is an additive solution commonly used for storage of RBCs. RBCs were incubated in home-made (A) and commercially available (B) AS-3 solution (Haemonetics, Catalog No. 0460a-00) for various lengths of time at 4° C. in the absence (white circles) or presence (100 μM, black circles) of 5-HT, and cell viability was assessed by flow cytometry at several times as indicated. The home-made AS-3 was prepared in sterile water as follows: Sodium chloride (NaCl, 2.35 g), D-Glucose (Dextrose, 5.5 g), Adenine (0.15 g), Citric Acid (0.21 g), Sodium Phosphate dibasic (Na2HPO4 anhydrous, 1.380 g) were dissolved in 500 ml of sterile water. The pH of the solution was adjusted at 7.39;
as §1, with “They were added at the indicated concentrations at the beginning of cell incubation (Day 0).” left out, “FSC is proportional to cell size, while SSC is proportional to cell complexity, which may reflect hemoglobin content of RBCs.” left out, “In some experiments, RBCs were sorted according to FSC and SSC.” left out
The effect of 5-HT on the survival of human RBCs cultured in AS-3 solution was assessed. […]

mouse RBCs = assay: Survival of mouse RBCs cultured at 37° C., flow cytometry; conditions: day 1 to day 7, 0-100 μM
Method: Mouse RBCs were cultured at 37° C. for the indicated periods of time, in the presence of increasing concentrations of 5-HT (0-100 μM). Cell viability was assessed by flow cytometry at day 1 (A), day 2 (B), day 3 (C), day 5 (D) and day 7 (E), and the percentage of viable cells (% of cells in R2) is indicated;
as §1, with “microscopy. […]” for “microscopy.”

human RBCs [3] = assay: RBC density and morphology by May Grünwald-Giemsa staining and light microscopy
Method: (C). Cells were incubated in the presence or absence of 5-HT. The density of RBC suspension and their morphology were assessed by May Grünwald-Giemsa staining;
as §1
To evaluate the morphology of the two populations of RBCs, these cells were sorted by flow cytometry according to their FSC/SSC characteristics, and stained by the May Grünwald-Giemsa method. […] Cells with intermediate amounts of hemoglobin (between normochromic and hypochromic) were also present in the R2 region (FIG. 2, upper right panel). […] At day 7, in the absence of 5-HT, fewer cells were present, and the majority of these cells were hypochromic with cytoplasmic inclusions (FIG. 3B, left panels).

NCCc1c[nH]c2ccc(O)cc12 [5-HT, serotonin]
concentration giving optimal effect on RBC viability ([1]; 0-100 μM tested, 37° C., FIG. 1F): 100 µM | protecting effect on RBCs (survival versus vehicle control) ([1]; 4° C.): is observed | protecting effect on RBCs (survival versus vehicle control) ([1]; 37° C.): is observed | percentage of viable RBCs as compared to controls without 5-HT ([1]; all time-points (day 0 to 21), 37° C., 5-HT 100 μM): higher | protecting effect on RBCs (survival versus vehicle control) ([1]; room temperature (21-23° C.)): is observed | survival of RBCs versus absence of 5-HT (human RBCs [2]; commercially available AS-3, 4° C.): increases the survival | survival of RBCs versus absence of 5-HT (human RBCs [2]; home-made AS-3, 4° C.): increases the survival | proportion of viable mouse RBCs versus 5-HT-free cultures (mouse RBCs): higher | RBC morphology (normochromic / hypochromic) (human RBCs [3]; 91 days at 4° C.): normochromic red blood cells are observed | RBC morphology (normochromic / hypochromic) (human RBCs [3]; day 7, 37° C.): the majority of these cells were normochromic | number of cells remaining, as judged by cell density (human RBCs [3]; day 7, 37° C., versus absence of 5-HT): a greater number of cells remained

COc1ccc2c(c1)c(CC(=O)O)c(C)n2C(=O)c1ccc(Cl)cc1 [indomethacin]
RBC survival as compared to RBCs cultured in the presence of buffer only [1]: increased survival

COc1ccc2[nH]cc(CCNC(C)=O)c2c1 [melatonin]
RBC survival as compared to RBCs cultured in the presence of buffer only [1]: increased survival

CC(C)NCC(O)COc1cccc2[nH]ccc12 (centres unmarked) [pindolol]
RBC survival as compared to RBCs cultured in the presence of buffer only [1]: increased survival
